The assay deals with T1, rhCRTh2 (Homo sapiens, UniProt Q9Y5Y4).
T1 construct: expressed in transfected cells; host or cells: HEK cells (membrane preparation)
T1 sequence (Q9Y5Y4 1-395): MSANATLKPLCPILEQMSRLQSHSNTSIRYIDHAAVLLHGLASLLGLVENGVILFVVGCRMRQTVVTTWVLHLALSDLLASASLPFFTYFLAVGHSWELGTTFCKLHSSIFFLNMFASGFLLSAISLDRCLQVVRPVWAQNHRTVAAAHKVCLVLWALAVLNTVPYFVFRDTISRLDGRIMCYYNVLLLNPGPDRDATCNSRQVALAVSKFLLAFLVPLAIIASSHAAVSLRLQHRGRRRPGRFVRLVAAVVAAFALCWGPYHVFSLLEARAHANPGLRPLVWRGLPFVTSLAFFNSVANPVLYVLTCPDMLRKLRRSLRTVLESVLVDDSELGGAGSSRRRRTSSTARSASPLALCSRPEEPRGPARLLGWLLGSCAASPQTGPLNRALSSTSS
Description: Ligand binding assay, [3H]PGD2 SPA on HEK cell membranes. The conditions noted are these: [3H]PGD2 displacement, membranes of HEK cells expressing rhCRTh2/Gα16, SPA beads, RT 2 hours. The protocol:
[^3H]PGD2 was purchased from Perkin Elmer Life Sciences with a specific activity of 100-210 Ci/mmol. All other chemicals were of analytical grade.
HEK cells expressing rhCRTh2/Gα16 were routinely maintained in DMEM containing 10% Foetal Bovine Serum (HyClone), 1 mg/ml geneticin, 2 mM L-glutamine and 1% non-essential amino acids. For the preparation of membranes, the adherent transfected HEKcells were grown to confluence in two layer tissue culture factories (Fisher, catalogue number TKT-170-070E). Maximal levels of receptor expression were induced by addition of […] sodium butyrate for the last 18 hours of culture. […] The final pellet was re-suspended in 4 ml of membrane homogenisation buffer per cell factory used and the protein content determined. […]
All assays were performed in Corning clear bottomed, white 96-well NBS plates (Fisher). […] (The optimum coating concentrations were determined for each batch of membranes) The beads were pelleted by centrifugation (800×g for 7 minutes at 4° C.), washed once with assay buffer (50 mM HEPES pH 7.4 containing 5 mM magnesium chloride) and finally re-suspended in assay buffer at a bead concentration of 10 mg/ml. […]

For `Cc1c(Sc2ccc(-c3ccccc3)cc2)c2cc(F)ccc2n1CC(=O)O` [Example 1, [3-(Biphenyl-4-ylsulfanyl)-5-fluoro-2-methyl-indol-1-yl]-acetic acid], the IC50 (commonly the concentration that gives 50% inhibition) is 20 nM.
